IC50, inhibition and Activity data for one molecule are collected here from ChEMBL document CHEMBL5661976 (Cancer Res, 2007).

In experiment [1] the target is Receptor tyrosine-protein kinase erbB-2 (Mus musculus, UniProt P70424). Nature of the experiment: Inhibition of ERBB2 expressed in mouse NIH3T3 cells. Format: cell-based.
The target in experiment [2] is Receptor tyrosine-protein kinase erbB-3 (Homo sapiens) (UniProt P21860). The experiment can be described thus: Inhibition of ERBB3 phosphorylation in human HCC827 cells expressing GFP at 1 to 10000 nmol/L incubated for 12 hrs by Western blotting analysis. Format: cell-based. The following applies: dose 1-10000 nmol/L. Background: A western blot detects proteins with antibodies after separation by electrophoresis.
Chain of Receptor tyrosine-protein kinase erbB-3 (Homo sapiens) (P21860 whole entry): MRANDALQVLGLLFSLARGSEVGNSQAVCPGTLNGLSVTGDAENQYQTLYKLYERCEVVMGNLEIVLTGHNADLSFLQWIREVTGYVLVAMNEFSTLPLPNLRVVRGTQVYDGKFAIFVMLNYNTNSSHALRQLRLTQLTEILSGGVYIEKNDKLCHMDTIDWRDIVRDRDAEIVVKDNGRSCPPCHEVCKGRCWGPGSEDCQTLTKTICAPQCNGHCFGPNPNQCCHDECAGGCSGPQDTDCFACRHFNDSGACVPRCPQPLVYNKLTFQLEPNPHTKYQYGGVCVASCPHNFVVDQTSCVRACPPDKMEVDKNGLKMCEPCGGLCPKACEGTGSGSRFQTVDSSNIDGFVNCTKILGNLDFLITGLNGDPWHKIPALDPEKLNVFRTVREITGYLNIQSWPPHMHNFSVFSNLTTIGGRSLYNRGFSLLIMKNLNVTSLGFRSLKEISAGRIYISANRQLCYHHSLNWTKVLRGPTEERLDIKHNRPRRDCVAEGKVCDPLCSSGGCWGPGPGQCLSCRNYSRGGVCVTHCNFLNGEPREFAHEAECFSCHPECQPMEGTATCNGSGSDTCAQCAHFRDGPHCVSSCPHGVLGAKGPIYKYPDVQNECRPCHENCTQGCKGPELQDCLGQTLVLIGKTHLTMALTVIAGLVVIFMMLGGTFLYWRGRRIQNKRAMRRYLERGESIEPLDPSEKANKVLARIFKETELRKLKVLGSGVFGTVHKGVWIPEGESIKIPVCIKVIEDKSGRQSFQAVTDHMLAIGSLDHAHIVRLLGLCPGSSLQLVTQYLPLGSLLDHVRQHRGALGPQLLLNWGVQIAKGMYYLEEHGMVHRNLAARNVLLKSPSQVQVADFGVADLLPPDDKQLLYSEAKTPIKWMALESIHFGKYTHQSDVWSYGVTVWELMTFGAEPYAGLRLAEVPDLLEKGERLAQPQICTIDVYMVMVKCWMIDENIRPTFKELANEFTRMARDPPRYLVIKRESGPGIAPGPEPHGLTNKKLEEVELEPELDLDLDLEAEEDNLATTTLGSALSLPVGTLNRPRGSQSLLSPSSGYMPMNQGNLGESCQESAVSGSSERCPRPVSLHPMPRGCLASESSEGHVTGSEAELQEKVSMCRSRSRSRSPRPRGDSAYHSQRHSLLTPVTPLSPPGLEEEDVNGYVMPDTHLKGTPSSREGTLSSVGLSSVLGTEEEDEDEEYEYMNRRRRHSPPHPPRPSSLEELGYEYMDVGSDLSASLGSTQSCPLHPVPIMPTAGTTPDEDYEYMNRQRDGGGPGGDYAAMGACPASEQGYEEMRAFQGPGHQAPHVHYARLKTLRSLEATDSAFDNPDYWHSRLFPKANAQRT

For a further experiment, the system named is NCI-H3255. Nature of the experiment: Induction of apoptosis in human NCI-H3255 cells assessed as increase in cleavage of PARP at 1 micromol/L incubated for 72 hrs by Western blotting analysis. Format: functional, cell-based. The following applies: dose 1.0 µmol/L.

Calls of active or inactive are those of the source. No cut-off for these calls is given here.

Chain of Receptor tyrosine-protein kinase erbB-2 (P70424 whole entry): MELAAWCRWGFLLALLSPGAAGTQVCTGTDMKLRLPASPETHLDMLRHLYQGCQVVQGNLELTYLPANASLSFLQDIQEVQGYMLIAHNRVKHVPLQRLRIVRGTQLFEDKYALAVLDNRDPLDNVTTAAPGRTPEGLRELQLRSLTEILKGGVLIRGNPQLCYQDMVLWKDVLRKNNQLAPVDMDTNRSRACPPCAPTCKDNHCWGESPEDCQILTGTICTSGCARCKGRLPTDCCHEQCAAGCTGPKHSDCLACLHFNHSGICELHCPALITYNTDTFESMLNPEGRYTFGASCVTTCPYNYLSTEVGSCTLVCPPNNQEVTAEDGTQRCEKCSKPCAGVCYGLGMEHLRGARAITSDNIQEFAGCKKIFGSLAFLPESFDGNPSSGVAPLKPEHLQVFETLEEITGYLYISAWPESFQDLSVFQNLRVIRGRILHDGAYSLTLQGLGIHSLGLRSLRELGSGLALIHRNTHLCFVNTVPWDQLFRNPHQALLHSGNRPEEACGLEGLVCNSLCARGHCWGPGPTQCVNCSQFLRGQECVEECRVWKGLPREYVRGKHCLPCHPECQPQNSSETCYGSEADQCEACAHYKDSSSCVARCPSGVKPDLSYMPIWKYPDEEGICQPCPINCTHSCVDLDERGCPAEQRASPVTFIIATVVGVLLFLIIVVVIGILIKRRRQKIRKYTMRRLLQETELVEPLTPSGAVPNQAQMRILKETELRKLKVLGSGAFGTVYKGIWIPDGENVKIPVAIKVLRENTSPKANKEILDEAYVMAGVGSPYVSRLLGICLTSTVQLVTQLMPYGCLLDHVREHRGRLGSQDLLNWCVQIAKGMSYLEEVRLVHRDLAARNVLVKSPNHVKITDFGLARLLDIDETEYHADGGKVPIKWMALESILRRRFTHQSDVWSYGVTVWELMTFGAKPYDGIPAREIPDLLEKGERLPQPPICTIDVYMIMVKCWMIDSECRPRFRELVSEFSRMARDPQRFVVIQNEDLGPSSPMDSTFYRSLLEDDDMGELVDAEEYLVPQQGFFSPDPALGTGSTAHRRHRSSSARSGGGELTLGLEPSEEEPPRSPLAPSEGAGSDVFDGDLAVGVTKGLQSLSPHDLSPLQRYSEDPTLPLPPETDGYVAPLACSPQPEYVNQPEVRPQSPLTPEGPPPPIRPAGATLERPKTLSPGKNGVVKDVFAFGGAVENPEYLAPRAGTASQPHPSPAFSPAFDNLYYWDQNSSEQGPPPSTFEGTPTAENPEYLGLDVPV

One may read the IC50 as the concentration that gives 50% inhibition. Turning to `COc1cc2ncnc(Nc3ccc(F)c(Cl)c3)c2cc1OCCCN1CCOCC1` [GEFITINIB], in experiment [1], the IC50 is above 500 nM. In experiment [2], the inhibition result was “Active”. In addition, the outcome in the experiment on NCI-H3255 was Active.
